Assay results published in US8188130B1, “Anti-cancer hydantoin compounds and methods” (University of Louisiana at Monroe, priority 2008, dated 2012).
Where no end group is shown, it is not given here.

How the values were obtained:
[1] = test system: PC-3M prostate cancer cell line; assay: In vitro metastasis assay (spheroid disaggregation, radial migration); type: cell-based
Protocol: In vitro metastasis assays were conducted to determine the anti-metastatic effect of various compounds. This assay involves preparation of spheroids approximately […] in diameter of cancer cells cultured on an extracellular matrix. In 24 hours, only metastatic cells disaggregate from the spheroid and start radial migration. Thus, lower measurements of radial migration are indicative of greater effectiveness of the drug/compound. Spheroids were prepared from single cell suspension of prostate cell lines as described before in Gondi, C. S., Lakka, S. S., Yanamandra, N., Olivero, W. C., Dinh, D. H., Gujrati, M., Tung, C. H., Weissleder, R., and Rao, J. S. (2004) Cancer Res 64(12), 4069-4077 and in Thomas, S., Chiriva-Internati, M., and Shah, G. V. (2007) Clin Exp Metastasis 24(5), 363-377 both of which are incorporated herein by reference. 5×10^4/ml cells in RPMI 1640 serum-free medium were placed on 96-well low-attachment tissue culture plates. The plates were rocked on gyrotory shaker in a CO2 incubator at 37° C. for 2 days, at the end of which the spheroids measuring 150-300 μm in diameter (˜4×10^4 cells/spheroid) were formed. A single spheroid was then placed in the center of each well of extracellular-matrix-coated 24-well microplate in […] of serum-free medium. From previous studies, it was determined that 1 hour was an appropriate time for spheroids to begin adhering to an extracellular matrix. Thus, t=0 was set as 1 hour from initial plating, so that if the plate was not disturbed, the spheroids would not move from their location at the time of plating. Spheroids were digitally photographed at t=0, cultured at 37° C. for 48 h and then re-photographed. […] The diameter of the area covered with cells migrated from the spheroids was measured in a microscope calibrated with a stage and ocular micrometer. The radial distance of migration was calculated after subtraction of the mean initial spheroidal diameter at t=0.

PC-3M cells [2] = assay: Invasion assay (Matrigel Boyden invasion chambers); type: cell-based; settings: 24 hours, FIG. 2
Protocol: Invasion assays were used to identify compounds with antimetastatic activity. Invasion assays were performed on a control group, a calcitonin (CT) stimulated group, a drug treated group and a group that was both drug treated and CT stimulated. The assay employed two-compartmented Boyden invasion chambers sold under the trademark MATRIGEL. The assay conditions were as follows: exponentially growing PC cells were serum-starved for 24 hours with basal incubation medium. Serum-starved cells were then seeded at a density of 25×10^3 cells/well in the upper insert of the invasion chamber. The lower chamber received the chemoattractant medium, which consisted of 90% basal RPMI medium and 10% conditioned medium from the cultures of PC-3M cells expressing constitutively active Gsa protein as described in Chien, J., Wong, E., Nikes, E., Noble, M. J., Pantazis, C. G., and Shah, G. V. (1999) Oncogene 18(22), 3376-3382 which is incorporated herein by reference. The incubations were carried out for 24 hours, after which the basement matrix protein or Matrigel™ (along with non-invading cells) was scraped off with cottonswabs, and the outer side of the insert was fixed and stained using hemaoxylin staining sold under the trademark Diff Quick (Dade Behring Diagnostics, Aguada, PR). The number of cells migrated on the outer bottom side of the insert were counted under the microscope in six or more randomly selected fields (magnification: 100×). The final results were expressed as mean+/−SEM number of invaded cells per 100× field. Each experiment was done in triplicates, and the experiment was repeated twice. […] To correct this, the growth rate was determined for PC-3M cells under identical culture conditions. 25×10^3 cells were plated at hourly intervals in six-well dishes and cultured for 1-24 hours. Mean percent increase in the cell number was determined by counting the net increase in the number of cells. […] This correction was applied to the results of invasion assays.

PC-3M cells [3] = assay: MTT assay, cell proliferation; type: cell-based
Protocol: MTT assays were used to measure effect of the tested drugs on tumor growth. MTT assays were performed on a control group, a calcitonin (CT) stimulated group, a group treated with compound 1 (drug treated), and a group that was both drug treated and CT stimulated. Conditions for the MTT assay were as follows: Exponentially growing cells were plated in a 96-well plate at a density of 8×10^3 cells per well, and cultured for 24 hours in complete growth medium (RPMI 1640 containing 10% fetal bovine, 10 mM HEPES, 4 mM L-glutamine, 100 IU/ml penicillin G and 100 μg/ml streptomycin). The complete growth medium was then replaced with 100 μl of basal incubation medium (RPMI 1640 containing 0.1% BSA, 10 mM HEPES, 4 mM L-glutamine, 100 IU/ml penicillin G and 100 μg/ml streptomycin). The cells were then treated with test compounds (dissolved in basal incubation medium), and the culture was continued at 37° C. under 5% CO2 for 24 hours. The cells were then treated with MTT solution at 37° C. for 4 h, and the color reaction was stopped with the stop solution (10% sodium dodecyl sulfate solution in 0.01 M hydrochloric acid) (100 μl/well). The incubation at 37° C. was continued until the formazan product was completely dissolved. Absorbance of the samples was determined at 595 nm with an ELISA plate reader (Bio-Rad, Hercules, Calif.).

[4] = test system: PC-3M cells over expressing CT; assay: Xenograft testing, orthotopic implant in athymic nude mice; type: in vivo; settings: compound 1 200 μg/day, compound 2 40 μg/day; for average life-expectancy: intraperitoneally every other day, untreated 54 days, ± SEM; for tumor growth in secondary organs (metastases): intraperitoneally, FIG. 5
From the text: In vivo xenograft testing was done on athymic nude mice to measure the anti-cancer effect of various compounds. PC-3M prostate cells were used that contain a red fluorescence protein from gene transfer to facilitate tracking of cancer cells. The red fluorescence protein used is described in Yang, M., Baranov, E., Wang, J. W., Jiang, P., Wang, X., Sun, F. X., Bouvet, M., Moossa, A. R., Penman, S., and Hoffman, R. M. (2002) Proc Natl Acad Sci U S A 99(6), 3824-3829, which is incorporated herein by reference. 1×10^5 PC-3M cells over expressing CT were implanted in 30 day old mice orthotopically, that is the prostate cancer cells were implanted into the prostate of the mice. The cells were then allowed to grow in their native environment allowing for metastasis into other organs such as the lymph nodes, bones and lungs. The mice, other than the control mice were injected intraperitoneally every other day. Dosing rates were 200 μg/day or 5 μg/g body weight/day-intrapertonieally for compound 1 and 40 μg/day or 1 μg/g body weight/day-intraperitoneally for compound 2. Tumor growth was measured by fluorescence imaging and the mice were sacrificed upon signs of morbidity such as immobility and high tumor burden.

prostate tumors = assay: Testing of transgenic LPB-Tag mice that spontaneously form prostate tumors; type: in vivo; settings: 80 μg/week intraperitoneally
From the text: In vivo testing was done on transgenic mice that spontaneously form prostate tumors to measure the anti-cancer effect of compound 2. The mice used were LPB-Tag mice of the type described in Kasper, S., and Smith, J. A., Jr. (2004) J Urol 172(1), 12-19 which is incorporated herein by reference. The mice were originally developed by Dr. Robert Matusik of Vanderbilt University. LPB-Tag mice are generated by the targeted expression of SV40 large T-antigen (Tag) in the prostate using androgen-regulated, prostate-specific large probasin (LPB) gene promoter. The mice develop PIN lesions as well as extensive prostate adenocarcinomas in adulthood. The mice had their p53 gene knocked out and T-antigen selectively targeted to the prostate. Therefore, the mice begin to develop prostate tumors spontaneously as they approached the age of 50 days (adulthood), the tumors gradually grew and became very large at the age of 90 days. Mice were sacrificed around day 90 and their prostates and other organs were harvested for studying tumor characteristics and histology. Compound 2 was delivered at a dosing of 80 μg/week or 2 μg/g body weight/week-intraperitoneally. […] These tests indicate that compounds of this invention may be used as a chemopreventive for high risk patients.

PC-3M cells [5] = assay: Growth rate of PC-3M cells by cell counting (correction for invasion assay); type: cell-based; settings: vehicle control=1; cultured 1-24 hours
Protocol: Invasion assays were used to identify compounds with antimetastatic activity. Invasion assays were performed on a control group, a calcitonin (CT) stimulated group, a drug treated group and a group that was both drug treated and CT stimulated. The assay employed two-compartmented Boyden invasion chambers sold under the trademark MATRIGEL. The assay conditions were as follows: exponentially growing PC cells were serum-starved for 24 hours with basal incubation medium. Serum-starved cells were then seeded at a density of 25×10^3 cells/well in the upper insert of the invasion chamber. The lower chamber received the chemoattractant medium, which consisted of 90% basal RPMI medium and 10% conditioned medium from the cultures of PC-3M cells expressing constitutively active Gsa protein as described in Chien, J., Wong, E., Nikes, E., Noble, M. J., Pantazis, C. […] The number of cells migrated on the outer bottom side of the insert were counted under the microscope in six or more randomly selected fields (magnification: 100×). The final results were expressed as mean+/−SEM number of invaded cells per 100× field. […] To correct this, the growth rate was determined for PC-3M cells under identical culture conditions. […] Mean percent increase in the cell number was determined by counting the net increase in the number of cells. […]

Row | Compound | dose until which no cytotoxicity [1] | disaggregation and migration of cells from spheroids ([1]; 50 μM) | effective dose range ([1]; multiple doses, distances migrated by the cells) | baseline invasion (PC-3M cells [2]; 50 μM, no CT) | CT-stimulated invasion (PC-3M cells [2]; 50 μM, CT 50 nM) | rate of CT stimulated cell proliferation (PC-3M cells [3]; 50 μM, 24 hours, CT stimulated, FIG. 1) | rate of baseline cell proliferation (PC-3M cells [3]; 50 μM, 24 hours, baseline (no CT), FIG. 1) | dosage rate until which no cytotoxic effect on PC-3M cells (PC-3M cells [3]; PC-3M cells) | average life-expectancy [4] | tumor growth in secondary organs (metastases) [4] | increased survival (prostate tumors) | decrease of tumor size measured at necropsy compared to diluents treated mice (prostate tumors; sacrificed around day 90) | invasion of PC-3M cells (PC-3M cells [2]; CT 50 nM) | relative CT-induced increase in cell number, pooled results of all time points (PC-3M cells [5])
1 | O=C1NC(=O)/C(=C/c2ccc(O)cc2)N1 [compound 1, (Z)-5-(4-hydroxybenzylidene)imidazolidine-2,4-dione] | ≥ 500 µM | did not disaggregate or migrate | 25 to 200 µM | did not affect baseline invasion | almost abolished CT-stimulated invasion | moderate but significant decline | moderate but significant decline | ≥ 500 µM | 61.44 days | completely prevented tumor growth in most secondary organs |  |  |  | 
2 | CCSc1ccc(/C=C2\NC(=O)NC2=O)cc1 [compound 2, (Z)-5-(4-S-ethylbenzylidene)imidazolidine-2,4-dione] |  |  |  |  |  |  |  |  | 66 ± 1 days | completely prevented tumor growth in most secondary organs | at least 1 week | 62% |  | 
3 | calcitonin (CGNLSTCMLGTYTQDFNKFHTFPQTAIGVGAP; ends and bridges not checked; cysteine pairing not given here; UniProt P01258 85-116, looked up) [CT, calcitonin (CT), used to stimulate proliferation, invasion and metastasis of PC-3M cells, reference compound] |  |  |  |  |  |  |  |  |  |  |  |  | significantly increased | 1.19
